Test results from US20250066386A1, “INHIBITORS OF KRAS” (BIOMEA FUSION, INC., priority 2022, published 2025).
Like-named read-outs stand apart in the source and are kept apart here.

Experiments:
[1] = from CCn1c(-c2cccnc2[C@H](C)OC)c(CC(C)(C)CO)c2cc(-c3cccc(C[C@H](NC(=O)OC(C)(C)C)C(=O)N4CCC[C@@H](C(=O)O)C4)c3)ccc21, ester bond, 18-membered ring, EDCI/HOBT/DIPEA, DCM, 25.0 °C, 16.0 h, 2 steps
[2] = tested on: human KRAS G12C mutated cell line MIA PaCa-2; assay: KRas G12C in vitro inhibitory activity: cell proliferation, CellTiter-Glo; format: cell-based; conditions: Homo sapiens
Text: The present example evaluates the ability of compounds provided herein to inhibit proliferation of KRAS mutant cells.
The inhibitory effect on cell proliferation was investigated in the human KRAS G12C mutated cell line MIA PaCa-2 (Yunis et al., 1977, Int. J. Cancer 19(1):128-135; ATCC catalog no. CRL-1420). Cells were maintained in RPMI-1640 medium (ThermoFisher catalog no. 61870036) supplemented with 10% of Heat Inactivated FBS (ThermoFisher catalog no. A31605) and 1% Pen-Strep (ThermoFisher catalog no. 10378016) and cultured at 37° C. in a humidified incubator with 5% CO2. Cells were grown by adhering to culture flasks, and maintained at 70%-80% confluency.
ATP is present in all metabolically active cells and is considered as a marker for viable cells. The number of metabolically active live cells in culture was determined using the CellTiter-Glo kit (Promega catalog no. G7572), an ATP monitoring system based on the production of luminescence by the reaction of ATP with added UltraGlo® recombinant luciferase (Kawano et al., 2016, PLOS One, 8; 11(7):e0158888), according to the supplier's experimental recommendations. The cell proliferation assay was based on a 96 well plate format.
Test compounds were dissolved at 10 mM in DMSO (Sigma catalog no. D8418; purity >99.9%) and stored at −20° C. Eight concentrations of test compound were assessed in duplicate in an individual test occasion in parallel in the selected cell lines. MRTX-849 and AMG-510 were used as reference compounds and tested in duplicate at eight concentrations. 100% of proliferation is represented by the untreated cells (0.2% DMSO).
On the day of the experiment (TO), cells were detached with TrypLE (ThermoFisher catalog no. 12604054), quantified using the cell viability analyser NucleoCounter (Chemometec NC-200) and resuspended in fresh medium at a cell density of about 5000 cells per 200 μL medium. 200 μL of cell suspension were added to each well of a 96 well plate.
Two hours after seeding cells, compounds were added at desired concentrations using a D300e compound dispenser (Life Sciences Tecan D300) with shaking after each compound addition. Assay plates were incubated at 37° C. in a humidified incubator with 5% CO2.
(§1) To measure 3 day inhibition of cell proliferation on day 3 (T3), assay plates were equilibrated to room temperature for approximately 15 min, and the Promega CellTiterGlo® reagent was added at 40 μL/well. Contents were mixed for 5 min on an orbital shaker to induce cell lysis, and then incubated at room temperature for an additional 10 min in the dark to stabilize the luminescent signal. Luminescence was read using a GloMax GM300 plate reader (Promega) using the luminescence for 96 well plate standard protocol.
as §1, with “measure 7” for “measure 3”, “(T3), 150 μL of growth media was removed from each well of the assay plates and replaced with 150 uL fresh growth media, and fresh compounds added using a D300e compound dispenser (Life Sciences Tecan D300) at desired concentrations with shaking between each compound addition. Assay plates were incubated at 37° C. in a humidified incubator with 5% CO2. On day 7 (T7)” for “(T3),”
Data was expressed as % of inhibition compared to the 0.2% DMSO negative no drug control, and is calculated as follows: % inhibition=100−[(RLU sample)×100/(RLU average controls*)], where * indicates the average for 0.2% DMSO.
Results were analyzed by GraphPad (Prism) and IC50 values were calculated by non-linear regression using four parameter-logistic equation. […]

[3] = MIA PaCa-2, 72 h, 3 day inhibition of cell proliferation, CellTiter-Glo luminescence, read-out: MIA PaCa-2 Day 3 IC50
[4] = MIA PaCa-2, 7 day inhibition of cell proliferation, medium and compound renewed on day 3, CellTiter-Glo luminescence, read-out: MIA PaCa-2 Day 7 IC50

| IC50 [2, 3] | IC50 [2, 4] | SMILES | ring closure, isolated yield ([1]; 9.6 mM) | ring closure, isolated yield ([1]; 9.9 mM) |
| --- | --- | --- | --- | --- |
| – | – | CCn1c(-c2cccnc2[C@H](C)OC)c2c3cc(ccc31)-c1cccc(c1)C[C@H](NC(=O)OC(C)(C)C)C(=O)N1CCC[C@H](C1)C(=O)OCC(C)(C)C2 | 62% | 56% |
| > 100 nM | 1 to 10 nM | CCn1c(-c2cccnc2[C@H](C)OC)c2c3cc(ccc31)-c1csc(n1)C[C@H](NC(=O)[C@H](C(C)C)N(C)C(=O)[C@H]1CCN(CC#CC(=O)N3CCC3)C1)C(=O)N1CCC[C@H](N1)C(=O)OCC(C)(C)C2 (atropisomer, axis not shown) [Compound 116, (3S)-1-(4-(azetidin-1-yl)-4-oxobut-2-yn-1-yl)-N-((2S)-1-(((6^3S,4S,Z)-1^1-ethyl-1^2-(2-((S)-1-methoxyethyl)pyridin-3-yl)-10,10-dimethyl-5,7-dioxo-6^1,6^2,6^3,6^4,6^5,6^6-hexahydro-1^1H-8-oxa-2(4,2)-thiazola-1(5,3)-indola-6(1,3)-pyridazinacycloundecaphane-4-yl)amino)-3-methyl-1-oxobutan-2-yl)-N-methylpyrrolidine-3-carboxamide] | – | – |
| > 100 nM | 1 to 10 nM | CCn1c(-c2cccnc2[C@H](C)OC)c2c3cc(ccc31)-c1csc(n1)C[C@H](NC(=O)[C@H](C(C)C)N(C)C(=O)[C@H]1CCN(CC#CC(=O)N3CC(F)(F)C3)C1)C(=O)N1CCC[C@H](N1)C(=O)OCC(C)(C)C2 (atropisomer, axis not shown) [Compound 117, (3S)-1-(4-(3,3-difluoroazetidin-1-yl)-4-oxobut-2-yn-1-yl)-N-((2S)-1-(((6^3S,4S,Z)-1^1-ethyl-1^2-(2-((S)-1-methoxyethyl)pyridin-3-yl)-10,10-dimethyl-5,7-dioxo-6^1,6^2,6^3,6^4,6^5,6^6-hexahydro-1^1H-8-oxa-2(4,2)-thiazola-1(5,3)-indola-6(1,3)-pyridazinacycloundecaphane-4-yl)amino)-3-methyl-1-oxobutan-2-yl)-N-methylpyrrolidine-3-carboxamide] | – | – |
| > 100 nM | 1 to 10 nM | CCn1c(-c2cccnc2[C@H](C)OC)c2c3cc(ccc31)-c1csc(n1)C[C@H](NC(=O)[C@H](C(C)C)N(C)C(=O)[C@H]1CCN(CC#CC(=O)N3CC(F)C3)C1)C(=O)N1CCC[C@H](N1)C(=O)OCC(C)(C)C2 (atropisomer, axis not shown) [Compound 118, (3S)—N-((2S)-1-(((6^3S,4S,Z)-1^1-ethyl-1^2-(2-((S)-1-methoxyethyl)pyridin-3-yl)-10,10-dimethyl-5,7-dioxo-6^1,6^2,6^3,6^4,6^5,6^6-hexahydro-1^1H-8-oxa-2(4,2)-thiazola-1(5,3)-indola-6(1,3)-pyridazinacycloundecaphane-4-yl)amino)-3-methyl-1-oxobutan-2-yl)-1-(4-(3-fluoroazetidin-1-yl)-4-oxobut-2-yn-1-yl)-N-methylpyrrolidine-3-carboxamide] | – | – |
| > 100 nM | – | C=CC(=O)N1CC[C@H](C(=O)N(C)[C@H](C(=O)N[C@H]2Cc3cccc(c3)-c3ccc4c(c3)c(c(-c3cccnc3[C@H](C)OC)n4CC)CC(C)(C)n3cc(nn3)[C@@H]3CCCN(N3)C2=O)C(C)C)C1 [Compound 104, (3S)-1-acryloyl-N-((2S)-1-(((6^3S,8S,Z)-21-ethyl-2^2-(2-((S)-1-methoxyethyl)pyridin-3-yl)-4,4-dimethyl-7-oxo-6^1,6^2,6^3,6^4,6^5,6^6-hexahydro-2^1H,5^1H-2(5,3)-indola-6(3,1)-pyridazina-5(1,4)-triazola-1(1,3)-benzenacyclononaphane-8-yl)amino)-3-methyl-1-oxobutan-2-yl)-N-methylpyrrolidine-3-carboxamide] | – | – |
| 10 to 100 nM | 10 to 100 nM | CCn1c(-c2cccnc2[C@H](C)OC)c2c3cc(ccc31)-c1csc(n1)C[C@H](NC(=O)[C@H](C(C)C)N(C)C(=O)N1[C@H](C)CN(CC#CC(=O)N(C)C)C[C@H]1C)C(=O)N1CCC[C@H](N1)C(=O)OCC(C)(C)C2 [Compound 105, (2R,6R)-4-(4-(dimethylamino)-4-oxobut-2-yn-1-yl)-N-((2S)-1-(((6^3S,4S,Z)-1^1-ethyl-1^2-(2-((S)-1-methoxyethyl)pyridin-3-yl)-10,10-dimethyl-5,7-dioxo-6^1,6^2,6^3,6^4,6^5,6^6-hexahydro-1^1H-8-oxa-2(4,2)-thiazola-1(5,3)-indola-6(1,3)-pyridazinacycloundecaphane-4-yl)amino)-3-methyl-1-oxobutan-2-yl)-N,2,6-trimethylpiperazine-1-carboxamide] | – | – |
| > 100 nM | – | CCn1c(-c2cccnc2[C@H](C)OC)c2c3cc(ccc31)-c1cccc(c1)C[C@H](NC(=O)[C@H](C(C)C)N(C)C(=O)[C@H]1CCN(C(=O)C#CCN3CCOCC3)C1)C(=O)N1CCC[C@@H](CC(=O)OC(C)(C)C2)C1 [Compound 106, (3S)—N-((2S)-1-(((6^3S,4S)-1^1-ethyl-1^2-(2-((S)-1-methoxyethyl)pyridin-3-yl)-10,10-dimethyl-5,8-dioxo-1^1H-9-oxa-1(5,3)-indola-6(1,3)-piperidina-2(1,3)-benzenacycloundecaphane-4-yl)amino)-3-methyl-1-oxobutan-2-yl)-N-methyl-1-(4-morpholinobut-2-ynoyl)pyrrolidine-3-carboxamide] | – | – |
| – | > 100 nM | CCn1c(-c2cccnc2[C@H](C)OC)c2c3cc(ccc31)-c1cccc(c1)C[C@H](NC(=O)[C@H](C(C)C)N(C)C(=O)[C@H]1CCN(C(=O)C#CCN3CCOCC3)C1)C(=O)N1CCC[C@@H](CC(=O)OC(C)(C)C2)C1 [Compound 107] | – | – |
| > 100 nM | – | CCn1c(-c2cccnc2[C@H](C)OC)c2c3cc(ccc31)-c1cccc(c1)C[C@H](NC(=O)[C@H](C(C)C)N(C)C(=O)[C@H]1CCN(C(=O)C#CCN3CCOCC3)C1)C(=O)N1CCC[C@H](CC(=O)OC(C)(C)C2)C1 [Compound 108, (3S)—N-((2S)-1-(((6^3R,4S)-1^1-ethyl-1^2-(2-((S)-1-methoxyethyl)pyridin-3-yl)-10,10-dimethyl-5,8-dioxo-1^1H-9-oxa-1(5,3)-indola-6(1,3)-piperidina-2(1,3)-benzenacycloundecaphane-4-yl)amino)-3-methyl-1-oxobutan-2-yl)-N-methyl-1-(4-morpholinobut-2-ynoyl)pyrrolidine-3-carboxamide] | – | – |
| < 1 nM | – | CCn1c(-c2cccnc2[C@H](C)OC)c2c3cc(ccc31)-c1csc(n1)C[C@H](NC(=O)[C@H](C(C)C)N(C)C(=O)[C@H]1CCN(C(C)C#CC(=O)N(C)C)C1)C(=O)N1CCC[C@H](N1)C(=O)OCC(C)(C)C2 (stereo partly drawn) [Compound 114, (3S)-1-(5-(dimethylamino)-5-oxopent-3-yn-2-yl)-N-((2S)-1-(((63S,4S,Z)-1^1-ethyl-1^2-(2-((S)-1-methoxyethyl)pyridin-3-yl)-10,10-dimethyl-5,7-dioxo-6^1,6^2,6^3,6^4,6^5,6^6-hexahydro-11H-8-oxa-2(4,2)-thiazola-1(5,3)-indola-6(1,3)-pyridazinacycloundecaphane-4-yl)amino)-3-methyl-1-oxobutan-2-yl)-N-methylpyrrolidine-3-carboxamide] | – | – |
